Format in all cases: in vivo, mouse
Data set [1] relates to C57Bl/6J mice. Nature of the data set: Plasma C24:1-ceramides after 72 hours on the diets. As to conditions: control and HFDs; 72 hours on diets. From the text: (§1) Diets. Diets were obtained from Research Diets (New Brunswick, N.J., United States of America). The low fat chow was D12450Ji (10 kcal % fat) and the high fat chow was D12492 (60 kcal % fat). These two chows were reformulated by replacing a portion of dietary fat with an ethyl ester of nervonic acid from Nu-Chek Prep (Elysian, Minn., United States of America) to produce isocaloric diets with nervonic acid at 6 g per kg of diet (0.6%). For the three most prevalent fatty acids in these diets: C16 comprised 14.4%, 11.7%, 18.5%, and 18.1%; C18:1 comprised 27.4%, 22.8%, 32%, and 31.4%; and C18:2 comprised 39.6%, 36.2%, 26.9%, and 26.5% of the fatty acid composition of the Cnt, Cnt+NA, HFD, and HFD+NA diets, respectively. Mice were started on diets at ˜8 weeks of age and given ad libitum access.
Sphingolipid and acylcarnitine measurements by liquid chromatography-mass spectrometry. Sphingolipids were analyzed as described previously (Wijesinghe et al., 2010) for FIG. 1B or with modifications described herein. Liver samples from rats fed a low or high fat diet were obtained from Scot Kimball's laboratory at the Pennsylvania State University (Hershey, Pa.). Mouse liver samples were analyzed with modifications as described previously (Pearson et al., 2020). […]

Data set [2] relates to C57Bl/6J mice. Nature of the data set: Body weight over 12 weeks on the diets. Here is the method:
Animals. Animal experiments were approved by the Animal Care and Use Committee of the University of Virginia (Charlottesville, Va., United States of America). C57Bl/6J mice were obtained from Jackson Laboratories (Bar Harbor, Me., United States of America). Mice were group housed in standard cages with up to five mice per cage with a 12 hour dark/light cycle. All mice were weighed once per week. Weekly food consumption was measured, with the amount consumed per cage averaged amongst the mice in the cage. Body composition was determined by use of an ECHOMRI™-100H Body Composition Analyzer (EchoMRI LLC, Houston, Tex., United States of America).
as §1

The subject of data set [3] is C57Bl/6J mice. The data set can be described thus: Fecal caloric content by bomb calorimetry. The procedure:
For determination of energy expenditure, respiratory exchange ratios, and activity, mice were placed in an Oxymax metabolic chamber systems (Comprehensive Laboratory Animal Monitoring System, CLAMS, from Columbus Instruments (Columbus, Ohio, United States of America). Oxygen consumption (V02) and carbon dioxide production (VCO2) were determined for each mouse every 18 minutes over 72 hours with ambulatory activity assessed every minute over this same time period. Only the last two complete light and dark cycles (spanning 48 hours) were used for data analysis. Feces was collected from these studies and shipped to the Mouse Metabolic Phenotyping Core at the University of Texas Southwestern for bomb calorimetry analysis using a Parr 6200 Isoperibol Calorimeter (Parr Instrument Company, Moline, Ill., United States of America).

The subject of data set [4] is C57Bl/6J mice. Nature of the data set: Fasting and random-fed blood glucose. Conditions: for fasting blood glucose / random-fed blood glucose: HFD+NA versus HFD, 8 weeks on diets. Here is the method: (§2) Insulin Tolerance Test (ITT) and Glucose Tolerance Test (GTT) and analysis of blood glucose and plasma insulin. ITT and GTT were performed as described in Lansey et al., 2012. Briefly, for ITT, random-fed mice were given an intraperitoneal injection (IP) of insulin (0.75 U/kg in 0.9% NaCl). Blood glucose levels were determined by a glucometer (Contour Next EZ Blood Glucose Monitoring System, Bayer, Leverkusen, Germany) at the indicated time points after injection. For GTT, mice were fasted for 16 hours prior to testing. D-Glucose, prepared the day before, was administered via an IP injection (1 g/kg), and blood glucose levels were determined by a glucometer at the indicated time points after injection. Plasma insulin levels were determined using a STELLUX® brand Chemi Rodent Insulin ELISA kit (Cat. No. 80-INSMR-CHO1; APLCO, Salem, N.H., United States of America) or an Ultrasensitive Rat/Mouse Insulin ELISA kit, Low Range Assay (Cat. No. 90060; Crystal Chem, Downers Grove, Ill., United States of America). The luminescence assay was conducted using a VICTOR2 Plate Reader (Perkin Elmer, Waltham, Mass., United States of America).

Data set [5] deals with C57Bl/6J mice. The data set can be described thus: Glucose Tolerance Test (GTT). Conditions: HFD+NA versus HFD, 10 weeks on diets. The procedure:
as §2

Data set [6] has as its system C57Bl/6J mice. The data set can be described thus: Insulin Tolerance Test (ITT). The procedure:
as §2

In data set [7] the test system is C57Bl/6J mice. The data set can be described thus: Liver acylcarnitine levels by LC-MS/MS. Here is the method: Acylcarnitines were quantified as their butyl esters as described in Giesbertz et al., 2015. Briefly, liver tissue was extracted in ice-cold methanol spiked with stable-isotopically labeled internal standards (Cambridge Isotope Laboratories, Tewksbury, Mass., United States of America). Insoluble material was pelleted and the supernatant subsequently dried down under vacuum. Samples were solubilized in n-butanol containing 5% acetyl chloride and incubated for 60° C. for 20 minutes, Samples were subsequently dried down again and resuspended in 50:50 water:methanol for LC-ESI-MS/MS analysis. LC-MS/MS analysis was performed on a I-class Acquity with a 2.1 mm×10 cm C18 CSH […] particle size column coupled to an in-line TQ-S mass spectrometer using multiple reaction monitoring. Calibration curves were generated from standard mixtures of acylcarnitines from Cambridge Isotope Laboratories.

In data set [8] the test system is C57Bl/6J mice. The data set can be described thus: Observation of overt toxicities in animals fed a NA-enriched diet.
[9] abbreviates: NA enrichment in both the control diet and the HFD.

The text below walks through data of US20220347144A1, “COMPOSITIONS AND METHODS FOR PREVENTING AND/OR REDUCING WEIGHT GAIN AND ASSOCIATED CONDITIONS” (University of Virginia Patent Foundation, priority 2019, published 2022).

Entries after “also recorded” stand apart in the source; their conditions may differ.

Regarding (Z)-tetracos-15-enoic acid [NA], in data set [1], the “plasma C24:1-ceramides” value is reported as “significant increases”. Further, the body weight gain entry in data set [2] (HFD+NA versus HFD, 12 weeks) was “significantly less body weight gain”. For the same substance, the body weights entry in data set [2] (HFD+NA versus control diet, 12 weeks) was “not significantly different”. The “body weight gains over time” value in data set [2] (NA-enriched control diet versus control diet) is “significantly less body weight gains over time”. Also, the fecal caloric content entry in data set [3] (HFD+NA versus HFD) and in data set [3] (control+NA versus control) was “No differences” each time. Moreover, the fasting blood glucose result in data set [4] was “significant reductions”; in data set [4] (listed as nervonic acid), “significant reduction”. Besides, the figures for the random-fed blood glucose result in data set [4] and in data set [4] (listed as nervonic acid) were “significant reductions” and “significant reduction”, respectively. Moreover, the blood glucose levels result in data set [4] (HFD+NA versus control diet, random fed or fasted) is listed as “not significantly different”; in data set [4] (control with NA diet versus control), “No significant differences”. The “glucose tolerance (glucose load, area under the curve)” value in data set [5] was “significantly improved glucose tolerance”; in data set [5] (listed as nervonic acid) it was “reduction in the glucose load”. The “response of blood glucose to insulin injection” value is on record as “responded similarly to mice on control diets” in data set [6] (HFD+NA, 11 weeks on diets); “responded similarly to mice on the control diet” in data set [6] (HFD+NA, 11 weeks on diets, listed as nervonic acid); “responded similar to mice on the control diet alone” in data set [6] (control diet containing NA); “responded similar to the control diet” in data set [6] (control diet containing NA, listed as nervonic acid). Moreover, the “dicarboxyl-acylcarnitines C5 (C5-DC) and C6 (C6-DC) levels in liver” value in data set [7] (HFD enriched with NA) is given as “teductions”. Moreover, in data set [7] (HFD+NA versus HFD), the “long-chain acylcarnitines in liver” value is given as “significant decreases; also recorded: largely restored to control levels”. Further, in data set [7] (NA enrichment in both diets, C4-OH, C6-OH, C10-OH, C8-OH), the “hydroxyl-fatty acylcarnitines in liver” value is “increased”. In addition, in data set [7] (setting [9]), the “acetyl-carnitine (C2) in liver” value is “increased”. Also, the “free carnitine (C0) in liver” value in data set [7] (setting [9]) is “increased”. Also, the “overt toxicities (ruffled fur, anorexia, cachexia, skin tenting, skin ulcerations, diarrhea, death)” value in data set [8] is reported as “No overt toxicities”.
